Results taken from patent publication US20150105252A1, “SUBSTITUTED PYRAZOLES AS HERBICIDES” (E I DU PONT DE NEMOURS AND COMPANY, priority 2013, published 2015).

How the values were obtained:
[1] = tested on: velvetleaf; experiment: Test A preemergence; type: in vivo, Abutilon theophrasti; conditions: preemergence; for Velvetleaf plant response rating (0 to 100 scale): 125 g ai/ha, visual injury approx. 10 days after treatment; for Velvetleaf plant response rating: 500 g ai/ha, visual injury after approx. 10 days, 0 to 100 scale (0 no effect, 100 complete control)
Outline: (§1)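 Seeds were sown in a loam soil–sand blend and given a directed soil spray preemergence; postemergence plants at 2–10 cm, one- to two-leaf stage, were sprayed with compound in non-phytotoxic solvent with surfactant. After about 10 days in a greenhouse, injury was visually rated against untreated controls (0 = no effect, 100 = complete control).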

[2] = tested on: corn; experiment: Test A preemergence; type: in vivo, Zea mays; conditions: preemergence; for Corn plant response rating (0 to 100 scale): 125 g ai/ha, visual injury approx. 10 days after treatment; for Corn plant response rating: 500 g ai/ha, visual injury after approx. 10 days, 0 to 100 scale (0 no effect, 100 complete control)
Outline: as §1

[3] = tested on: velvetleaf; experiment: Test A postemergence; type: in vivo, Abutilon theophrasti
Outline: as §1

[4] = tested on: crabgrass, large; experiment: Test C preemergence; type: in vivo, Digitaria sanguinalis; conditions: preemergence; for Plant response rating, Crabgrass, Large: 125 g ai/ha, scale 0 to 100, 0 = no effect, 100 = complete control
Outline: (§2)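 Seeds sown in loam–sand blend and treated preemergence with test chemicals in non-phytotoxic solvent with surfactant; postemergence plants in peat-based medium, treated at 2–18 cm (1- to 4-leaf stage). Greenhouse 13 to 15 days, then visual rating versus controls, 0 (no effect) to 100 (complete control).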

[5] = tested on: wheat; experiment: Test C postemergence; type: in vivo, Triticum aestivum; conditions: for Plant response rating, Wheat / Wheat plant response rating: postemergence; for Plant response rating, Wheat: 250 g ai/ha, scale 0 to 100 (0 no effect, 100 complete control); for Wheat plant response rating: scale 0 to 100
Outline: as §2

[6] = tested on: velvetleaf; experiment: Test C preemergence; type: in vivo, Abutilon theophrasti; conditions: preemergence; for Plant response rating, Velvetleaf: 125 g ai/ha, scale 0 to 100, 0 = no effect, 100 = complete control
Outline: as §2

[7] = tested on: foxtail, giant; experiment: Test A preemergence; type: in vivo, Setaria faberii; conditions: preemergence; for Foxtail, Giant plant response rating (0 to 100 scale): 125 g ai/ha, visual injury approx. 10 days after treatment; for Foxtail, Giant plant response rating: 500 g ai/ha, visual injury after approx. 10 days, 0 to 100 scale (0 no effect, 100 complete control)
Outline: as §1

[8] = tested on: pigweed; experiment: Test A postemergence; type: in vivo, Amaranthus retroflexus
Outline: as §1

[9] = tested on: velvetleaf; experiment: Test C postemergence; type: in vivo, Abutilon theophrasti; conditions: for Plant response rating, Velvetleaf / Velvetleaf plant response rating: postemergence; for Plant response rating, Velvetleaf: 250 g ai/ha, scale 0 to 100 (0 no effect, 100 complete control); for Velvetleaf plant response rating: scale 0 to 100
Outline: as §2

[10] = tested on: johnsongrass; experiment: Test C postemergence; type: in vivo, Sorghum halepense; conditions: for Plant response rating (scale of 0 to 100 where 0 is no effect and 100 is complete control), Johnsongrass: Postemergence, 31 g ai/ha, visually evaluated after 13 to 15 days; for Johnsongrass plant response rating / Plant response rating, Johnsongrass: postemergence; for Johnsongrass plant response rating: 62 g ai/ha, scale 0 to 100
Outline: as §2

[11] = tested on: rice; experiment: Test B flood; type: in vivo, Oryza sativa; conditions: 250 g ai/ha, visual rating on 0 to 100 scale (0 no effect, 100 complete control), 13 to 15 days
Outline: (§3)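 Paddy-water application: seedlings at 2-leaf stage, flood depth 3 cm maintained for the test duration. Evaluation after 13–15 days in the greenhouse by eye relative to controls; 0–100 scale.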

[12] = tested on: lambsquarters; experiment: Test C postemergence; type: in vivo, Chenopodium album; conditions: for Plant response rating (scale of 0 to 100 where 0 is no effect and 100 is complete control), Lambsquarters: Postemergence, 31 g ai/ha, visually evaluated after 13 to 15 days; for Lambsquarters plant response rating / Plant response rating, Lambsquarters: postemergence; for Lambsquarters plant response rating: 62 g ai/ha, scale 0 to 100
Outline: as §2

[13] = tested on: sedge, umbrella; experiment: Test B flood; type: in vivo, Cyperus difformis; conditions: 250 g ai/ha, visual rating on 0 to 100 scale (0 no effect, 100 complete control), 13 to 15 days
Outline: as §3

[14] = tested on: wheat; experiment: Test C preemergence; type: in vivo, Triticum aestivum; conditions: preemergence; for Plant response rating, Wheat: 125 g ai/ha, scale 0 to 100, 0 = no effect, 100 = complete control
Outline: as §2

[15] = tested on: waterhemp; experiment: Test C postemergence; type: in vivo, Amaranthus rudis; conditions: for Plant response rating, Waterhemp / Waterhemp plant response rating: postemergence; for Plant response rating, Waterhemp: 250 g ai/ha, scale 0 to 100 (0 no effect, 100 complete control); for Waterhemp plant response rating: scale 0 to 100
Outline: as §2

[16] = Postemergence, 500 g ai/ha, 0 to 100 scale (0 no effect, 100 complete control)
[17] = postemergence, 125 g ai/ha, about 10 days, visual rating on 0 to 100 scale (0 no effect, 100 complete control)
[18] = 31 g ai/ha, visual rating, scale 0 to 100 (0 no effect, 100 complete control), 13 to 15 days
[19] = 62 g ai/ha, scale 0 to 100 (0 no effect, 100 complete control), 13 to 15 days
[20] = 250 g ai/ha, scale 0 to 100, 0 is no effect, 100 is complete control
[21] = Postemergence, 31 g ai/ha, visually evaluated after 13 to 15 days
[22] = 250 g ai/ha, scale 0 to 100 (0 no effect, 100 complete control)
[23] = 125 g ai/ha, scale 0 to 100, 0 no effect, 100 complete control

O=C(NC1CC1)c1cc(CCCl)n(Cc2ccnc(C(F)(F)F)c2)n1 [Compound 144]
Velvetleaf plant response rating (0 to 100 scale) [1]: 50
Velvetleaf plant response rating [1]: 100
Corn plant response rating (0 to 100 scale) [2]: 10
Corn plant response rating [2]: 80
Velvetleaf plant response rating [3, 16]: 90
Velvetleaf plant response rating [3, 17]: 80
Crabgrass, Large plant response rating [4, 18]: 100
Crabgrass, Large plant response rating [4, 19]: 100
Plant response rating, Crabgrass, Large ([4]; 13 to 15 days): 100
Crabgrass, Large plant response rating [4, 20]: 100
Plant response rating (scale of 0 to 100 where 0 is no effect and 100 is complete control), Wheat [5, 21]: 5
Plant response rating, Wheat [5]: 10
Wheat plant response rating [5]: 10
Velvetleaf plant response rating [6, 18]: 15
Velvetleaf plant response rating [6, 19]: 75
Plant response rating, Velvetleaf ([6]; 13 to 15 days): 100
Velvetleaf plant response rating [6, 20]: 100
Foxtail, Giant plant response rating (0 to 100 scale) [7]: 100
Foxtail, Giant plant response rating [7]: 100
Pigweed plant response rating [8, 16]: 100
Pigweed plant response rating [8, 17]: 100
Plant response rating (scale of 0 to 100 where 0 is no effect and 100 is complete control), Velvetleaf [9, 21]: 15
Plant response rating, Velvetleaf [9]: 50
Velvetleaf plant response rating [9]: 35
Plant response rating (scale of 0 to 100 where 0 is no effect and 100 is complete control), Johnsongrass [10]: 5
Johnsongrass plant response rating [10]: 5
Plant response rating, Johnsongrass [10, 22]: 15
Plant response rating, Johnsongrass [10, 23]: 10
Plant response rating, Rice [11]: 0
Plant response rating (scale of 0 to 100 where 0 is no effect and 100 is complete control), Lambsquarters [12]: 60
Lambsquarters plant response rating [12]: 60
Plant response rating, Lambsquarters [12, 22]: 95
Plant response rating, Lambsquarters [12, 23]: 70
Plant response rating, Sedge, Umbrella [13]: 95
Wheat plant response rating [14, 18]: 5
Wheat plant response rating [14, 19]: 40
Plant response rating, Wheat ([14]; 13 to 15 days): 80
Wheat plant response rating [14, 20]: 90
Plant response rating (scale of 0 to 100 where 0 is no effect and 100 is complete control), Waterhemp [15, 21]: 65
Plant response rating, Waterhemp [15]: 75
Waterhemp plant response rating [15]: 75

CCNC(=O)c1cc(CC)n(Cc2cc(C(F)(F)F)nn2C)n1 [Compound 154]
Velvetleaf plant response rating (0 to 100 scale) [1]: 90
Velvetleaf plant response rating [1]: 100
Corn plant response rating (0 to 100 scale) [2]: 0
Corn plant response rating [2]: 30
Velvetleaf plant response rating [3, 16]: 100
Velvetleaf plant response rating [3, 17]: 80
Crabgrass, Large plant response rating [4, 18]: 100
Crabgrass, Large plant response rating [4, 19]: 100
Plant response rating, Crabgrass, Large ([4]; 13 to 15 days): 100
Crabgrass, Large plant response rating [4, 20]: 100
Plant response rating, Wheat [5]: 10
Wheat plant response rating [5]: 5
Velvetleaf plant response rating [6, 18]: 10
Velvetleaf plant response rating [6, 19]: 40
Plant response rating, Velvetleaf ([6]; 13 to 15 days): 90
Velvetleaf plant response rating [6, 20]: 100
Foxtail, Giant plant response rating (0 to 100 scale) [7]: 100
Foxtail, Giant plant response rating [7]: 100
Pigweed plant response rating [8, 16]: 100
Pigweed plant response rating [8, 17]: 100
Plant response rating, Velvetleaf [9]: 55
Velvetleaf plant response rating [9]: 25
Plant response rating (scale of 0 to 100 where 0 is no effect and 100 is complete control), Johnsongrass [10]: 0
Johnsongrass plant response rating [10]: 0
Plant response rating, Johnsongrass [10, 22]: 5
Plant response rating, Johnsongrass [10, 23]: 5
Plant response rating, Rice [11]: 0
Plant response rating (scale of 0 to 100 where 0 is no effect and 100 is complete control), Lambsquarters [12]: 40
Lambsquarters plant response rating [12]: 50
Plant response rating, Lambsquarters [12, 22]: 75
Plant response rating, Lambsquarters [12, 23]: 75
Plant response rating, Sedge, Umbrella [13]: 95
Wheat plant response rating [14, 18]: 0
Wheat plant response rating [14, 19]: 5
Plant response rating, Wheat ([14]; 13 to 15 days): 50
Wheat plant response rating [14, 20]: 90
Plant response rating, Waterhemp [15]: 85
Waterhemp plant response rating [15]: 65
